Laboratory results published in US20110152090A1, “HERBICIDAL COMPOSITIONS COMPRISING FLUFENACET” (Bayer CropScience AG, priority 2009, published 2011).

What was measured:
Assay type in all cases: in vivo
[1] = test system: POAAN (Poa annua); assay: Greenhouse trial: PE soil application vs incorporation into the soil (test methods 1, 3); details: g of AS/ha: (A) 90, (B) 1200, (C) 90, (D) 300
Protocol: (§1) In the standard design of the test, seeds of various broad-leaved weed and weed grass biotypes (origins) were sown in a 8-13 cm diameter pot filled with natural soil of a standard field soil (loamy silt; non-sterile) and covered with a covering soil layer of about 1 cm. The pots were then cultivated in a greenhouse (12-16 h of light, temperature day 20-22° C., night 15-18° C.) until the time of application. The pots were treated on a laboratory track sprayer with spray liquors comprising the compositions according to the invention, mixtures of the prior art or components used individually. Application of the active compounds or active compound combinations formulated as WG, WP, EC or otherwise was carried out at the appropriate growth stages of the plants. The application rate for the spray application was 100-600 l of water/ha. After the treatment, the plants were returned to the greenhouses.
(§2) About 3 weeks after the application, the soil action or/and foliar action was assessed visually according to a scale of 0-100% in comparison to an untreated comparative group: 0%=no noticeable effect compared to the untreated comparative group; 100%=full effect compared to the untreated comparative group.
(§3) (notes: the term “seeds” also includes vegetative propagation forms such as, for example, rhizome pieces; abbreviations used: h light=hours of illumination, g of AS/ha=gram of active substance per hectare, l/ha=liter per hectare, S=sensitive, R=resistant) • 1. Pre-emergence action against weeds: seeds of various broad-leaved weed and weed grass biotypes (origins) were sown in a 8-13 cm diameter pot filled with natural soil of a standard field soil (loamy silt; non-sterile) and covered with a covering soil layer of about 1 cm. The pots were then cultivated in a greenhouse (12-16 h of light, temperature day 20-22° C., night 15-18° C.) until the time of application. The pots were treated at the BBCH stage 00-10 of the seeds/plants on a laboratory track sprayer with spray liquors comprising the compositions according to the invention, mixtures or components used individually, as WG, WP, EC or other formulations. The application rate for the spray application was 100-600 l of water/ha. After the treatment, the plants were returned to the greenhouses and, when required, treated with fertilizer and watered. • 2. Post-emergence action against weeds: seeds of various broad-leaved weed and weed grass biotypes (origins) were sown in a 8-13 cm diameter pot filled with natural soil of a standard field soil (loamy silt; non-sterile) and covered with a covering soil layer of about 1 cm. The pots were then cultivated in a greenhouse (12-16 h of light, temperature day 20-22° C., night 15-18° C.) until the time of application. The pots were treated at various BBCH stages between 11-25 of the seeds/plants, i.e. generally between two to three weeks after the start of the cultivation, on a laboratory track sprayer with spray liquors comprising the compositions according to the invention, mixtures or components used individually, as WG, WP, EC or other formulations. The application rate for the spray application was 100-600 l of water/ha. After the treatment, the plants were returned to the greenhouses and, when required, treated with fertilizer and watered. • 3. Pre-emergence action against weeds with and without incorporation of active compound: seeds of various broad-leaved weed and weed grass biotypes (origins) were sown in a 8-13 cm diameter pot filled with natural soil of a standard field soil (loamy silt; non-sterile). […]

[2] = test system: STEME (Stellaria media); assay: as above; details: g of AS/ha: (A) 90, (B) 1200, (C) 90, (D) 300
Protocol: as §1, §2, §3

[3] = test system: TRZAS (Triticum aestivum, summer wheat); assay: Greenhouse trial: crop selectivity, PE soil application vs incorporation (test methods 3, 4); details: g of AS/ha: (A) 90, (B) 1200, (C) 90, (D) 300
Protocol: as §1
as §2, with “group. […]” for “group.”

[4] = test system: APESV (Apera Spica-venti); assay: Greenhouse trial: PO application (test method 2); details: g of AS/ha: (A) 120, (B) 1600, (C) 120
Protocol: as §1, §2, §3

[5] = test system: POAAN (Poa annua); assay: Greenhouse trial: PO application (test method 2); details: g of AS/ha: (A) 120, (B) 1600, (C) 120
Protocol: as §1, §2, §3

[6] = test system: STEME (Stellaria media); assay: Greenhouse trial: PO application (test method 2); details: g of AS/ha: (A) 120, (B) 1600, (C) 120
Protocol: as §1, §2, §3

[7] = test system: HORVS (Hordeum vulgare, summer barley); assay: Greenhouse trial: selective PO action (test method 5); details: PO application; g of AS/ha: (A) 120, (B) 1600, (C) 120
Protocol: as §1, §2
(§4) (notes: the term “seeds” also includes vegetative propagation forms such as, for example, rhizome pieces; abbreviations used: h light=hours of illumination, g of AS/ha=gram of active substance per hectare, l/ha=liter per hectare, S=sensitive, R=resistant) • 1. Pre-emergence action against weeds: seeds of various broad-leaved weed and weed grass biotypes (origins) were sown in a 8-13 cm diameter pot filled with natural soil of a standard field soil (loamy silt; non-sterile) and covered with a covering soil layer of about 1 cm. The pots were then cultivated in a greenhouse (12-16 h of light, temperature day 20-22° C., night 15-18° C.) until the time of application. […]

[8] = test system: AVEFA (Avena fatua); assay: Greenhouse trial: pre-sowing application vs PE application (test method 6)
Protocol: as §1, §2, §3

[9] = test system: LOLPE (Lolium perenne); assay: as above
Protocol: as §1, §2, §3

[10] = test system: HORVS (Hordeum vulgare, summer barley); assay: Greenhouse trial: pre-sowing application vs PE application (test method 6), crop, PE part; details: PE application; g of AS/ha: (A) 90, (B) 1200, (C) 90
Protocol: as §1, §2, §4

[11] = test system: TRZAS (Triticum aestivum, summer wheat); assay: Greenhouse trial: pre-sowing application vs PE application (test method 6), crop, pre-sowing part; details: application 7 days prior to sowing; g AS/ha: (A) 90, (B) 1200, (C) 90
Protocol: as §1, §2, §4

[12] = test system: AVEFA (Avena fatua); assay: Greenhouse trial: different irrigation systems (test method 7); details: g of AS/ha: (A) 120, (B) 1200, (C) 90
Protocol: as §1, §2, §3

[13] = test system: LOLPE (Lolium perenne); assay: as above; details: g of AS/ha: (A) 120, (B) 1200, (C) 90
Protocol: as §1, §2, §3

[14] = test system: MATCH (Matricaria chamomilla); assay: as above; details: g of AS/ha: (A) 120, (B) 1200, (C) 90
Protocol: as §1, §2, §3

[15] = test system: LOLPE (Lolium perenne); assay: Greenhouse trial: different soil types (test method 8); details: g of AS/ha: (A) 120, (B) 1200, (C) 90
Protocol: as §1, §2, §3

[16] = test system: MATCH (Matricaria chamomilla); assay: as above; details: g of AS/ha: (A) 120, (B) 1200, (C) 90
Protocol: as §1, §2, §3

[17] = test system: HORVS (Hordeum vulgare, summer barley); assay: Greenhouse trial: different soil types (test method 8), crop; details: g AS/ha: (A) 120, (B) 1200, (C) 90
Protocol: as §1, §2, §3

[18] = test system: LOLSS (Lolium species), sensitive and resistant; assay: Greenhouse trial: resistant biotypes, PE application (test method 9); details: g of AS/ha: (A) 90, (B) 1200, (C) 90, iodosulfuron 10
Protocol: as §1, §2, §3

[19] = test system: MATCH (Matricaria chamomilla), sensitive and resistant; assay: as above; details: g of AS/ha: (A) 90, (B) 1200, (C) 90, iodosulfuron 10
Protocol: as §1, §2, §3

[20] = test system: STEME (Stellaria media), sensitive and resistant; assay: as above; details: g of AS/ha: (A) 90, (B) 1200, (C) 90, iodosulfuron 10
Protocol: as §1, §2, §3

[21] = test system: APESV (Apera Spica-venti); assay: Greenhouse trial: different sowing depths, PE application (test method 10); details: g of AS/ha: (A) 90, (B) 1200, (C) 90
Protocol: as §1, §2, §3

[22] = test system: MATCH (Matricaria chamomilla); assay: as above; details: g of AS/ha: (A) 90, (B) 1200, (C) 90
Protocol: as §1, §2, §3

[23] = PE application, g of AS/ha: (A) 90, (B) 1200, (C) 90
[24] = application 7 days prior to sowing, g AS/ha: (A) 90, (B) 1200, (C) 90

O=C(Nc1ccc(F)cc1F)c1cccnc1Oc1cccc(C(F)(F)F)c1 [(C) diflufenican, N-(2,4-difluorophenyl)-2-[3-(trifluoromethyl)phenoxy]-3-pyridinecarboxamide]
activity POAAN (visual scale 0-100%) ([1]; PE application): 70% | activity POAAN (visual scale 0-100%) ([1]; incorporation into the soil): 92% | activity STEME (visual scale 0-100%) ([2]; PE application): 50% | activity STEME (visual scale 0-100%) ([2]; incorporation into the soil): 95% | activity on crop TRZAS (visual scale 0-100%) ([3]; PE application): 0% | activity on crop TRZAS (visual scale 0-100%) ([3]; incorporation into the soil): 30% | activity APESV (visual scale 0-100%) [4]: 5% | activity POAAN (visual scale 0-100%) [5]: 5% | activity STEME (visual scale 0-100%) [6]: 30% | activity on crop HORVS (visual scale 0-100%) [7]: 5% | activity AVEFA (visual scale 0-100%) [8, 23]: 30% | activity AVEFA (visual scale 0-100%) [8, 24]: 10% | activity LOLPE (visual scale 0-100%) [9, 23]: 20% | activity LOLPE (visual scale 0-100%) [9, 24]: 10% | activity on crop HORVS (visual scale 0-100%) [10]: 5% | activity on crop TRZAS (visual scale 0-100%) [11]: 5% | activity AVEFA (visual scale 0-100%) ([12]; irrigation from above): 50% | activity AVEFA (visual scale 0-100%) ([12]; irrigation from below): 30% | activity LOLPE (visual scale 0-100%) ([13]; irrigation from above): 20% | activity LOLPE (visual scale 0-100%) ([13]; irrigation from below): 20% | activity MATCH (visual scale 0-100%) ([14]; irrigation from above): 0% | activity MATCH (visual scale 0-100%) ([14]; irrigation from below): 50% | activity LOLPE IU soil (visual scale 0-100%) ([15]; IU soil): 45% | activity LOLPE IU/EC73 soil (visual scale 0-100%) ([15]; IU/EC73 soil): 0% | activity MATCH IU soil (visual scale 0-100%) ([16]; IU soil): 40% | Difference of the soil types, MATCH ([16]; IU/EC73 soil vs IU soil): −5% | activity MATCH IU/EC73 soil (visual scale 0-100%) ([16]; IU/EC73 soil): 35% | activity on crop HORVS IU soil (visual scale 0-100%) ([17]; IU soil): 0% | activity on crop HORVS IU/EC73 soil (visual scale 0-100%) ([17]; IU/EC73 soil): 0% | activity LOLSS resistant (visual scale 0-100%) ([18]; resistant biotype): 20% | activity LOLSS sensitive (visual scale 0-100%) ([18]; sensitive biotype): 80% | activity MATCH resistant (visual scale 0-100%) ([19]; resistant biotype): 30% | activity MATCH sensitive (visual scale 0-100%) ([19]; sensitive biotype): 30% | activity STEME resistant (visual scale 0-100%) ([20]; resistant biotype): 50% | activity STEME sensitive (visual scale 0-100%) ([20]; sensitive biotype): 70% | activity APESV 5 mm (visual scale 0-100%) ([21]; sowing depth 5 mm): 5% | activity APESV 20 mm (visual scale 0-100%) ([21]; sowing depth 20 mm): 5% | activity MATCH 5 mm (visual scale 0-100%) ([22]; sowing depth 5 mm): 60% | activity MATCH 20 mm (visual scale 0-100%) ([22]; sowing depth 20 mm): 70%
